Test results as given in patent US12077503B2, “Substituted cyclic amides and their use as herbicides” (FMC CORPORATION, priority 2015, dated 2024).

Columns and labels:
Type in all cases: in vivo
[1] = system: barnyardgrass (Echinochloa crus-galli); assay: Test G Pre-Emergence Protocol; conditions: Echinochloa crus-galli, pre-emergence, 312 h, evaluated after 13 days
In short: (§1)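 Glasshouse pre-emergence test: soil-sown seeds, sprayed after 1 d at 15.625, 62.5 or 250 g/ha. Conditions 24/16° C day/night, 14 h light, 65% humidity, watering twice daily. Rating 13 d post-spray (100 = total damage).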

corn (Zea mays) [2] = assay: Test G Pre-Emergence Protocol; conditions: Zea mays, pre-emergence, 312 h, evaluated after 13 days
In short: as §1

[3] = system: giant foxtail (Setaria faberi); assay: Test G Pre-Emergence Protocol; conditions: Setaria faberi, pre-emergence, 312 h, evaluated after 13 days
In short: as §1

[4] = system: ivy-leaved morning glory (Ipomoea hederacea); assay: Test G Pre-Emergence Protocol; conditions: Ipomoea, pre-emergence, 312 h, evaluated after 13 days
In short: as §1

[5] = system: redroot pigweed (Amaranthus retroflexus); assay: Test G Pre-Emergence Protocol; conditions: Amaranthus retroflexus, pre-emergence, 312 h, evaluated after 13 days
In short: as §1

[6] = system: velvetleaf (Abutilon theophrasti); assay: Test G Pre-Emergence Protocol; conditions: Abutilon theophrasti, pre-emergence, 312 h, evaluated after 13 days
In short: as §1

[7] = system: barnyardgrass (Echinochloa crus-galli); assay: Test G Post-Emergence Protocol; conditions: Echinochloa crus-galli, post-emergence, 312 h, read-out: Barnyardgrass damage rating
In short: (§2)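 Eight days post-sowing, plants received a spray of test compound (acetone/water 50:50, 0.5% Tween 20) at 15.625, 62.5 or 250 g/ha. Glasshouse regime thereafter: 24/16 °C, 14 h light, 65% humidity. Assessment after 13 days on a 0–100 damage scale.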

corn (Zea mays) [8] = assay: Test G Post-Emergence Protocol; conditions: Zea mays, post-emergence, 312 h, read-out: Corn damage rating
In short: as §2

[9] = system: giant foxtail (Setaria faberi); assay: Test G Post-Emergence Protocol; conditions: Setaria faberi, post-emergence, 312 h, read-out: Foxtail, Giant damage rating
In short: as §2

[10] = system: ivy-leaved morning glory (Ipomoea hederacea); assay: Test G Post-Emergence Protocol; conditions: Ipomoea, post-emergence, 312 h, read-out: Morningglory, Ivy-leaved damage rating
In short: as §2

[11] = system: redroot pigweed (Amaranthus retroflexus); assay: Test G Post-Emergence Protocol; conditions: Amaranthus retroflexus, post-emergence, 312 h, read-out: Pigweed, Redroot damage rating
In short: as §2

[12] = system: velvetleaf (Abutilon theophrasti); assay: Test G Post-Emergence Protocol; conditions: Abutilon theophrasti, post-emergence, 312 h, read-out: Velvetleaf damage rating
In short: as §2

[13] = 15.625 g ai/ha, evaluated after 13 days (100=total damage to plant; 0=no damage to plant)
[14] = 62.5 g ai/ha, evaluated after 13 days, 100=total damage to plant, 0=no damage to plant
[15] = 250 g ai/ha, evaluated after 13 days, 100=total damage to plant, 0=no damage to plant

`CC(C)S(=O)(=O)c1ccccc1NC(=O)[C@H]1C(=O)N(C)C[C@@H]1c1ccc(C(F)(F)F)cc1` (racemic) [Compound 1665] gave a pest or weed control at 15.625 g/ha ([1]; 15.625 g ai/ha, read-out: Barnyardgrass damage rating (100=total damage to plant; 0=no damage to plant)) of 0%, a pest or weed control at 62.5 g/ha ([1]; 62.5 g ai/ha, 100=total damage to plant, 0=no damage to plant, read-out: Barnyardgrass damage rating) of 0% and a pest or weed control at 250 g/ha ([1]; 250 g ai/ha, read-out: Barnyardgrass damage rating (100=total damage to plant; 0=no damage to plant)) of 20%. For the same compound, the plant injury at 15.625 g/ha (corn (Zea mays) [2]; 15.625 g ai/ha, read-out: Corn damage rating (100=total damage to plant; 0=no damage to plant)) was 0%, the plant injury at 62.5 g/ha (corn (Zea mays) [2]; 62.5 g ai/ha, 100=total damage to plant, 0=no damage to plant, read-out: Corn damage rating) was 0% and the plant injury at 250 g/ha (corn (Zea mays) [2]; 250 g ai/ha, read-out: Corn damage rating (100=total damage to plant; 0=no damage to plant)) was 0%. It also gave a pest or weed control at 15.625 g/ha ([3]; 15.625 g ai/ha, read-out: Foxtail, Giant damage rating (100=total damage to plant; 0=no damage to plant)) of 0%, a pest or weed control at 62.5 g/ha ([3]; 62.5 g ai/ha, 100=total damage to plant, 0=no damage to plant, read-out: Foxtail, Giant damage rating) of 0% and a pest or weed control at 250 g/ha ([3]; 250 g ai/ha, read-out: Foxtail, Giant damage rating (100=total damage to plant; 0=no damage to plant)) of 80%. It also gave a pest or weed control at 15.625 g/ha ([4]; 15.625 g ai/ha, read-out: Morningglory, Ivy-leaved damage rating (100=total damage to plant; 0=no damage to plant)) of 0%, a pest or weed control at 62.5 g/ha ([4]; 62.5 g ai/ha, 100=total damage to plant, 0=no damage to plant, read-out: Morningglory, Ivy-leaved damage rating) of 0% and a pest or weed control at 250 g/ha ([4]; 250 g ai/ha, read-out: Morningglory, Ivy-leaved damage rating (100=total damage to plant; 0=no damage to plant)) of 20%. The pest or weed control at 15.625 g/ha ([5]; 15.625 g ai/ha, read-out: Pigweed, Redroot damage rating (100=total damage to plant; 0=no damage to plant)) was 0%, the pest or weed control at 62.5 g/ha ([5]; 62.5 g ai/ha, 100=total damage to plant, 0=no damage to plant, read-out: Pigweed, Redroot damage rating) was 0% and the pest or weed control at 250 g/ha ([5]; 250 g ai/ha, read-out: Pigweed, Redroot damage rating (100=total damage to plant; 0=no damage to plant)) was 20%. It also gave a pest or weed control at 15.625 g/ha ([6]; 15.625 g ai/ha, read-out: Velvetleaf damage rating (100=total damage to plant; 0=no damage to plant)) of 0%, a pest or weed control at 62.5 g/ha ([6]; 62.5 g ai/ha, 100=total damage to plant, 0=no damage to plant, read-out: Velvetleaf damage rating) of 0% and a pest or weed control at 250 g/ha ([6]; 250 g ai/ha, read-out: Velvetleaf damage rating (100=total damage to plant; 0=no damage to plant)) of 0%. The pest or weed control at 15.625 g/ha [7, 13] was 0%, the pest or weed control at 62.5 g/ha [7, 14] was 0% and the pest or weed control at 250 g/ha [7, 15] was 40%. For the same compound, the plant injury at 15.625 g/ha (corn (Zea mays) [8]; [13]) was 0%, the plant injury at 62.5 g/ha (corn (Zea mays) [8]; [14]) was 0% and the plant injury at 250 g/ha (corn (Zea mays) [8]; [15]) was 0%. The pest or weed control at 15.625 g/ha [9, 13] was 0%, the pest or weed control at 62.5 g/ha [9, 14] was 0% and the pest or weed control at 250 g/ha [9, 15] was 60%. For the same compound, the pest or weed control at 15.625 g/ha [10, 13] was 0%, the pest or weed control at 62.5 g/ha [10, 14] was 0% and the pest or weed control at 250 g/ha [10, 15] was 0%. It also gave a pest or weed control at 15.625 g/ha [11, 13] of 0%, a pest or weed control at 62.5 g/ha [11, 14] of 0% and a pest or weed control at 250 g/ha [11, 15] of 40%. For the same compound, the pest or weed control at 15.625 g/ha [12, 13] was 0%, the pest or weed control at 62.5 g/ha [12, 14] was 0% and the pest or weed control at 250 g/ha [12, 15] was 0%.
